From US20110053954A1, “METHOD OF TREATMENT AND/OR PREVENTION OF BRAIN, SPINAL OR NERVE INJURY” (priority 2001, published 2011) come the findings set out here.

Assay type in all cases: in vivo, rat
Assay [1] deals with Male Sprague Dawley rats. The experiment in a line: Evans Blue extravasation as marker of blood brain barrier permeability after traumatic brain injury. The conditions noted are these: Evans Blue i.v. at 4.5 h after injury, circulating 30 mins, saline standardized to 100%. The protocol: Edema formation in the immediate post-traumatic period is thought to be vasogenic in origin, where increased permeability of the blood brain barrier permits protein extravasation and water accumulation in the brain interstitium. We used Evans Blue extravasation as a marker of blood brain permeability after traumatic brain injury and treatment with the NK-1 receptor antagonist N-(3,5-bis-trifluoromethyl-benzyl)-N-methyl-6-(4-methyl-piperazin-1-yl)-4-o-tolyl-nicotinamide.
At 4.5 h after induction of brain injury, animals were administered i.v. Evans Blue which was allowed to circulate for 30 mins. At that time point, animals were sacrificed and their brains removed for analysis of Evans Blue penetration. The amount of Evans Blue accumulation in the brains of saline treated animals was standardized to 100%. […] As anticipated, uninjured (sham) animals had no significant Evans Blue accumulation in brain tissue.

In assay [2] the test system is Male Sprague Dawley rats. Nature of the assay: Exploratory behavior and self-grooming (post-traumatic depression) after brain injury. The conditions noted are these: brain injured rats, compared with non-injured animals.
The test system of assay [3] is Male Sprague Dawley rats. Nature of the assay: Respiratory pattern and weaning off the ventilator after brain injury. The conditions noted are these: brain injured rats. The protocol:
(§1) Male Sprague Dawley rats (400±25 g) were pre-trained on both the Rotarod and Barnes maze so as to assess the effects of the compound on post-traumatic motor and cognitive outcome, respectively. After one week of training, rats were severely injured using the impact acceleration model of traumatic brain injury (2 meters) and administered either of the NK-1 receptor antagonist N-(3,5-bis-trifluoromethylbenzyl)-N-methyl-6-(4-methyl-piperazin-1-yl)-4-o-tolyl-nicotinamide (10 mg/kg i.v., based on active, free base), the NMDA (N-methyl-D-aspartate) antagonist MK801 ((+)-10,11-dihydro-5-methyl-5H-dibenzo[a,d]cyclo-hepten-5,10-diyldiammonium maleate; Dizocilpine maleate; 0.3 mg/kg i.v., based on active, free base) or 0.9% saline vehicle (n=10/group) at 30 minutes after injury.
This stability in respiration is thought to be due to both central effects on respiration and by the NK-1 receptor antagonist administered in the method of treatment of the present invention reducing pulmonary edema formation in brain injured animals.

Assay [4] deals with Male Sprague Dawley rats. Nature of the assay: Rotarod motor outcome after traumatic brain injury (impact acceleration model). The conditions noted are these: i.v. at 30 minutes after injury, NK-1 antagonist 10 mg/kg, MK801 0.3 mg/kg, compared with saline vehicle, 24 h to 10 days post-injury. The protocol:
as §1
Over the next 9 days, there was a gradual improvement in motor performance, however the deficit was always significant compared to pre-injury.

The subject of assay [5] is Male Sprague Dawley rats. The experiment in a line: Mortality after severe traumatic brain injury. The conditions noted are these: i.v. at 30 minutes after injury, saline 30%. As to the method: as §1
Mortality in rats in this severe model of injury is normally between 20 and 30%. In the saline treated animals, mortality was indeed 30%. […] This high mortality was consistent with this injury level being severe as confirmed by post mortem gross histological analysis of all brains.

Assay [6] deals with Male Sprague Dawley rats. Nature of the assay: Barnes maze cognitive outcome after traumatic brain injury. The conditions noted are these: i.v. at 30 minutes after injury. As to the method:
as §1
Prior to injury, rats were trained to locate an escape tunnel (from aversive sound and light) within 20 sec. This time factor depends on the ability of the animal to learn and remember the location of the escape tunnel.

In the case of `Cc1ccccc1-c1cc(N2CCN(C)CC2)ncc1C(=O)N(C)Cc1cc(C(F)(F)F)cc(C(F)(F)F)c1` [N-(3,5-bis-trifluoromethyl-benzyl)-N-methyl-6-(4-methyl-piperazin-1-yl)-4-o-tolyl-nicotinamide], in the assay with Male Sprague Dawley rats [1], the “Evans Blue accumulation in brain relative to saline treated animals” value turned out to be 18%. The “exploratory behavior and self-grooming” value with Male Sprague Dawley rats [2] is on record as “not significantly different from non-injured animals”. Further, in the assay on Male Sprague Dawley rats [3] (compared with any other treatment group), the “weaning off of the ventilator” value is recorded as “far more quickly”. The respiratory pattern result in the assay with Male Sprague Dawley rats [3] (compared with saline and MK801 treated counterparts) is on record as “more stable respiratory pattern”. Also, the “motor outcome (Rotarod Motor Score) after brain injury” value in the assay on Male Sprague Dawley rats [4] is given as “significantly better motor outcome”. Moreover, the mortality in the assay on Male Sprague Dawley rats [5] amounted to 0%. In the assay with Male Sprague Dawley rats [6] (at 24 h / at any time point after injury, pre-injury within 20 sec), the “latency to escape the aversive stimuli (Barnes Cognitive Score)” value is “did not demonstrate an increased latency”. Besides, the “latency to escape the aversive stimuli, course over the ensuing 9 days” value in the assay on Male Sprague Dawley rats [6] (days 2-10 post-injury) is given as “improved with each assessment”.
